According to patent publication US9357776B2, “Method for producing pest control agent” (priority 2011, dated 2016):

Columns and labels:
Aphis gossypii = assay: Test for control of cotton aphid (leaf disk); type: in vivo; conditions: in Cucumis sativus, foliar, 72 h, read-out: Mortality rate, Aphis gossypii
Procedure: (§1) A leaf disk having a diameter of 2.0 cm was cut out from cucumber (Cucumis sativus L.) grown in a pot. Then, a liquid agent prepared to be 50% acetone-water (to which 0.05% Tween20 was added) and to contain 500 ppm of a compound represented by formula (I) was spread over the leaf disk. After the leaf disk was air dried, first instar larvae were released on the leaf disk. After that, the leaf disk was allowed to stand in a thermostatic chamber at 25° C. (16-hour light period and 8-hour dark period). […] The test was duplicated. Mortality rate (%)=[Number of dead insects/(Number of survived insects+Number of dead insects)]×100

Laodelphax striatellus [1] = assay: Test for control of Laodelphax striatellus (wheat seedling root treatment); type: in vivo; conditions: 96 h, read-out: Mortality rate, Laodelphax striatellus
Procedure: Roots of wheat seedlings 48 hours after seeding were each treated with 200 μL of a liquid agent prepared to be 10% acetone-water, and to contain 100 ppm of a compound represented by formula (I). The agent was absorbed through the roots for 72 hours, and then 10 second instar larvae of Laodelphax striatellus were released on each wheat seedling. After that, the wheat seedlings were allowed to stand in a thermostatic chamber at 25° C. (16-hour light period and 8-hour dark period). […] The test was duplicated.

Laodelphax striatellus [2] = assay: Test for control of Laodelphax striatellus, sensitive and resistant strains (rice soil drench); type: in vivo; conditions: three days after release
Procedure: (§2) Rice plant seedlings grown in a pot were treated by soil drench with a liquid agent prepared to be 10% acetone-water, and to contain a predetermined concentration of a compound of the present invention. Three days after the treatment, 10 sensitive or resistant strain of second instar larvae of Laodelphax striatellus were released on each of the rice plant seedlings. After that the rice plant seedlings were allowed to stand in a thermostatic chamber at 25° C. (16-hour light period and 8-hour dark period). […] The test was duplicated. Mortality rate (%)=[Number of dead insects/(Number of survived insects+Number of dead insects)]×100
Note that the pests tested were insects bred for generations in a room for a long period (sensitive strain), and insects collected in Kumamoto Prefecture in 2006, and bred for generations in a room (field-collected strain: resistant strain).

Plutella xylostella = assay: Test for control of diamondback moth (leaf disk); type: in vivo; conditions: in Brassica oleracea, foliar, 72 h, read-out: Mortality rate, Plutella xylostella
Procedure: as §1, with “5.0” for “2.0”, “cabbage” for “cucumber (Cucumis sativus L.)”, “second” for “first”

[3] = tested on: crude enzyme extraction liquid of housefly (Musca domestica); assay: In vitro metabolism test using crude enzyme extraction liquid of housefly; type: in vitro ADME; conditions: 25° C., 40 hours, LC/MS
Procedure: As described in Pest Management Science (2003), 59(3), 347-352, and Journal of Pesticide Science (2004), 29(2), 110-116, imidacloprid is known to be inactivated by oxidative metabolism, which is thought to be one of the mechanisms for the acquisition of the resistance. To investigate effects on insects acquiring such resistance, the following experiment was carried out.
To adult housefly (Musca domestica) (0.645 g), 10 ml of a potassium phosphate buffer (pH 7.4, containing 1 mM EDTA) was added, and the adult housefly was sufficiently ground with Physcotron (Nichion Irika Kikai Seisakusho). After that, the ground material was centrifuged under conditions of 10,000 g and 15 minutes. The obtained supernatant was further centrifuged under conditions of 100,000 g and 60 minutes. Thus, precipitates were obtained. The precipitates were dissolved in 1 ml of a potassium phosphate buffer, and this solution was used as a crude enzyme solution. The enzyme extraction operations were all conducted on ice or under a condition of 4° C.
Reagents were mixed with each other at the following ratio in a tube having a capacity of 1.5 mL, and allowed to react with each other at 25° C. for 40 hours. After the reaction, 1 mL of acetone was added to the mixture, followed by stirring. Then, the formed precipitates were removed by centrifugation at 12000 rpm for 5 minutes. […]

[4] = tested on: Haemaphysalis longicornis; assay: Test for control of Haemaphysalis longicornis (dry film in glass vial); type: in vivo; conditions: 24 h, read-out: Mortality rate
Procedure: Into a glass vial having a capacity of 4 mL, 30 μL of an acetone solution containing 200 ppm or 10 ppm of a compound of the present invention was introduced. The vial was placed on a shaker, and air dried, while being rotated. Thus, a dry film of the compound was formed on the inner wall of the vial. After the vial was dried for 24 hours or longer, 10 larvae of Haemaphysalis longicornis were released in the vial, and then the vial was capped. The vial was allowed to stand in a thermostatic chamber under conditions of 25° C., a humidity of 85%, and total darkness. […] The test was duplicated. Mortality rate (%)=[Number of dead insects/(Number of survived insects+Number of dead insects)]×100

Nilaparvata lugens = assay: Test for control of Nilaparvata lugens, sensitive and resistant strains (rice soil drench); type: in vivo; conditions: three days after release
Procedure: as §2, with “Nilaparvata lugens” for “Laodelphax striatellus”, “that,” for “that”
Note that the pests tested were as follows: Insects bred for generations in a room for a long period (sensitive strain), (I) Insects collected in Kumamoto Prefecture in 2007, and bred for generations in a room (field-collected strain: resistant strain), or (II) Insects collected in Fukuoka Prefecture in 2005, and bred for generations in a room (field-collected strain).

[5] = tested on: Haemaphysalis longicornis; assay: Effect of controlling Haemaphysalis longicornis on body surface of mouse; type: in vivo; conditions: mouse (ICR, male), 20 μL of 1000-fold diluted drop preparation (48% by weight Compound 1 in ethanol), three days after release
Procedure: Hair on the back of a mouse (ICR, male, 5-weeks old) in a region having a diameter of approximately 2 cm was shaved, and a 15-mL polystyrene conical tube cut to have a height of approximately 1.5 cm was bonded to this region with an instant adhesive.
Then, 20 μL of a 1000-fold diluted liquid of a pest control agent prepared according to the following formulation was added dropwise onto the body surface of the mouse within the bonded tube. After sufficient drying, […] larvae of Haemaphysalis longicornis were released into the tube, and the tube was capped.
Formulation [Drop Preparation]
The components were uniformly mixed with each other, and a drop preparation was obtained. blood-sucking inhibition rate (%)=100−[Number of […]/(Number of survived ticks+Number of dead ticks)]×100

[6] = 0.005 mg/seedling, all the strains
[7] = 0.01 mg/seedling, sensitive strain
[8] = 0.01 mg/seedling, strain (II) (Fukuoka 2005, field-collected)
[9] = 0.01 mg/seedling, field-collected strain (Kumamoto 2006, resistant)

SMILES | mortality at 500 ppm (Aphis gossypii) [%] | mortality at 100 ppm (Laodelphax striatellus [1]) [%] | mortality at 500 ppm (Plutella xylostella) [%] | further results
O=C(N=c1ccccn1Cc1ccc(Cl)nc1)C(F)(F)F [Compound 1, N-[1-((6-Chloropyridin-3-yl)methyl)pyridin-2(1H)-ylidene]-2,2,2-trifluoroacetamide] | 100 | 100 | 100 | Mortality rate (Laodelphax striatellus [2]; [6]): ≥ 90%; total area percentage of metabolites [3]: 0.08; mortality at 10 ppm [4]: ≥ 80%; mortality at 200 ppm [4]: ≥ 80%; Mortality rate (Nilaparvata lugens; [6]): ≥ 90%; Mortality rate (Nilaparvata lugens; 0.05 mg/seedling, all the strains): 100%; blood-sucking inhibition rate [5]: 91%
O=C(N=c1ccccn1Cc1cnc(Cl)c(F)c1)C(F)(F)F [Compound 2, N-[1-((6-Chloro-5-fluoropyridin-3-yl)methyl)pyridin-2(1H)-ylidene]-2,2,2-trifluoroacetamide] | 100 | 100 | 100 | Mortality rate (Nilaparvata lugens; [7]): 72%; Mortality rate (Nilaparvata lugens; [8]): 70%
O=C(N=c1ccccn1Cc1ccc(Br)nc1)C(F)(F)F [Compound 3, N-[1-((6-Bromopyridin-3-yl)methyl)pyridin-2(1H)-ylidene]-2,2,2-trifluoroacetamide] | 100 | 100 | 100 | Mortality rate (Laodelphax striatellus [2]; [9]): 90%; Mortality rate (Laodelphax striatellus [2]; [7]): 100%
O=C(N=c1ccccn1Cc1ccc(Cl)nc1)C(F)(F)Cl [Compound 4, 2-chloro-N-[1-((6-Chloropyridin-3-yl)methyl)pyridin-2(1H)-ylidene]-2,2-difluoroacetamide] | 100 | 100 | 100 | 
O=C(N=c1ccccn1Cc1ccc(Cl)nc1)C(Cl)(Cl)Cl [Compound 5, 2,2,2-Trichloro-N-[1-((6-chloropyridin-3-yl)methyl)pyridin-2(1H)-ylidene]acetamide] | 95 | 75 | 100 | 
O=C(N=c1ccccn1Cc1cnc(Cl)nc1)C(F)(F)F [Compound 6, N-[1-((2-Chloropyrimidin-5-yl)methyl)pyridin-2(1H)-ylidene]-2,2,2-trifluoroacetamide] | 100 | 100 | 100 | 
O=C(N=c1ccccn1Cc1ccc(Cl)nc1)C(F)(F)C(F)(F)F [Compound 7, N-[1-((6-Chloropyridin-3-yl)methyl)pyridin-2(1H)-ylidene]-2,2,3,3,3-pentafluoropropanamide] | 100 | 100 | 100 | 
O=C(N=c1ccccn1Cc1ccc(Cl)nc1)C(F)F [Compound 8, N-[1-((6-Chloropyridin-3-yl)methyl)pyridin-2(1H)-ylidene]-2,2-difluoroacetamide] | 100 | 100 | 100 | 
O=C(N=c1ccccn1Cc1ccc(F)nc1)C(F)(F)F [Compound 19, N-[1-((6-fluoropyridin-3-yl)methyl)pyridin-2(1H)-ylidene]-2,2,2-trifluoroacetamide] | 100 | 100 | 100 | Mortality rate (Nilaparvata lugens; [7]): 100%; Mortality rate (Nilaparvata lugens; [8]): 93%
N#Cc1nn(-c2c(Cl)cc(C(F)(F)F)cc2Cl)c(N)c1[S+]([O-])C(F)(F)F (stereo not shown) [fipronil] |  |  |  | Mortality rate (Laodelphax striatellus [2]; [9]): 70%; Mortality rate (Laodelphax striatellus [2]; [7]): 100%
O=[N+]([O-])NC1=NCCN1Cc1ccc(Cl)nc1 [imidacloprid, reference compound] |  |  |  | Mortality rate (Laodelphax striatellus [2]; [9]): 50%; Mortality rate (Laodelphax striatellus [2]; [7]): 100%; total area percentage of metabolites [3]: 2.55; mortality at 10 ppm [4]: 4%; Mortality rate (Nilaparvata lugens; 0.05 mg/seedling, sensitive strain): 100%; Mortality rate (Nilaparvata lugens; 0.05 mg/seedling, strain (I) (Kumamoto 2007, resistant strain)): 40%; Mortality rate (Nilaparvata lugens; 0.05 mg/seedling, strain (II) (Fukuoka 2005, field-collected)): 60%
